Measurements reported in the supplement of paper PMC10331698.
± gives the standard deviation of the averaged measurements.

How the values were obtained:
Test in all cases: level (log10 ratio to DMSO vehicle control); higher = higher biomarker level / cell amount than vehicle control
[1] = compound: OCCCC(F)(F)C(F)(F)C(F)(F)C(F)(F)C(F)(F)C(F)(F)C(F)(F)F [7:3 Fluorotelomer alcohol]; conditions: 6700 nM; in DMSO
Method: (§1)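 BioMAP Diversity Plus panel of 12 human primary cell co-culture systems (3C, 4H, LPS, SAg, BT, BF4T, BE3C, CASM3C, HDF3CGF, KF3CT, MyoF, Mphg). Compounds were added 1 h before stimulation and left for 24 h (MyoF 48 h; BT 72 h for soluble read-outs or 6 d for IgG). Biomarkers were read by ELISA, cytotoxicity by SRB, PBMC viability and proliferation by Alamar Blue. Each well value was divided by the mean of 8 DMSO control wells on the same plate and log10 transformed; duplicate blinded samples were tested at 4 concentrations.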

Perfluoroheptanoic acid = compound: O=C(O)C(F)(F)C(F)(F)C(F)(F)C(F)(F)C(F)(F)C(F)(F)F [Perfluoroheptanoic acid]; conditions: in DMSO
Method: as §1

[2] = compound: CCN(CCO)S(=O)(=O)C(F)(F)C(F)(F)C(F)(F)C(F)(F)C(F)(F)C(F)(F)C(F)(F)C(F)(F)F [N-Ethyl-N-(2-hydroxyethyl)perfluorooctanesulfonamide]; conditions: in DMSO
Method: as §1

[3] = compound: O=C(O)C(F)(F)OC(F)(F)C(F)(F)OC(F)(F)C(=O)O [Perfluoro-3,6-dioxaoctane-1,8-dioic acid]; conditions: in DMSO
Method: as §1

[4] = compound: FC(F)(F)C(F)(F)C(F)(F)C(F)(F)C(F)(F)CCI [1-Iodo-1H,1H,2H,2H-perfluoroheptane]; conditions: in DMSO
Method: as §1

Perfluorobutanoic acid = compound: O=C(O)C(F)(F)C(F)(F)C(F)(F)F [Perfluorobutanoic acid]; conditions: in DMSO
Method: as §1

Perfluoro-1-iodohexane = compound: FC(F)(F)C(F)(F)C(F)(F)C(F)(F)C(F)(F)C(F)(F)I [Perfluoro-1-iodohexane]; conditions: in DMSO
Method: as §1

Test System	level (log10) [1]	level (log10) (Perfluoroheptanoic acid; 6700 nM)	level (log10) (Perfluoroheptanoic acid; 20000 nM)	level (log10) (Perfluoroheptanoic acid; 60000 nM)	level (log10) ([2]; 6700 nM)	level (log10) ([2]; 20000 nM)	level (log10) ([3]; 6700 nM)	level (log10) ([3]; 20000 nM)	level (log10) ([3]; 60000 nM)	level (log10) ([4]; 6700 nM)	level (log10) ([4]; 20000 nM)	level (log10) ([4]; 60000 nM)	level (log10) (Perfluorobutanoic acid; 6700 nM)	level (log10) (Perfluorobutanoic acid; 20000 nM)	level (log10) (Perfluorobutanoic acid; 60000 nM)	level (log10) (Perfluoro-1-iodohexane; 6700 nM)	level (log10) (Perfluoro-1-iodohexane; 20000 nM)	level (log10) (Perfluoro-1-iodohexane; 60000 nM)
SAg:CD69	-0.026 ± 0.018	-0.006 ± 0.0014	-0.0145 ± 0.0021	-0.008 ± 0.017	-0.043 ± 0.016	-0.085 ± 0.04	0.0045 ± 0.0021	0.007 ± 0.0057	0 ± 0.0014	-0.025 ± 0.011	-0.037 ± 0.0042	-0.036 ± 0.011	-0.01 ± 0.014	-0.0095 ± 0.03	0.018 ± 0.047	-0.0155 ± 0.033	-0.017 ± 0.024	0.006 ± 0.0014
BT:Secreted IgG	-0.0105 ± 0.028	0.0185 ± 0.0092	0.007 ± 0.027	-0.0365 ± 0.011	-0.002 ± 0.016	-1.16 ± 0.3	0.032 ± 0.025	0.0095 ± 0.005	-0.0365 ± 0.036	-0.006 ± 0.016	-0.002 ± 0.062	-0.0185 ± 0.08	0.017 ± 0.0028	-0.02 ± 0.035	0.0055 ± 0.022	0.0195 ± 0.023	-0.0165 ± 0.043	-0.0315 ± 0.081
BT:sIL-17F	0.0115 ± 0.056	-0.0725 ± 0.13	-0.023 ± 0.21	-0.013 ± 0.045	-0.0225 ± 0.029	-0.299 ± 0.037	-0.146 ± 0.0057	-0.102 ± 0.057	-0.0675 ± 0.022	-0.0855 ± 0.011	0.0525 ± 0.033	-0.0455 ± 0.16	0.081 ± 0.035	0.065 ± 0.0014	-0.035 ± 0.024	0.0035 ± 0.015	0.041 ± 0.12	0.0815 ± 0.061
BF4T:MMP-9	-0.0235 ± 0.018	0.0145 ± 0.016	0.0445 ± 0.022	0.103 ± 0.054	-0.012 ± 0.014	-0.032 ± 0.0014	-0.021 ± 0.0057	-0.0135 ± 0.005	0.02 ± 0.017	0.01 ± 0.0014	0.03 ± 0.0014	0.065 ± 0.017	0.006 ± 0.045	0.006 ± 0.059	0.022 ± 0.059	-0.0005 ± 0.015	-0.011 ± 0.0042	-0.021 ± 0.034
3C:CXCL8/IL-8	0.0075 ± 0.0035	0.0285 ± 0.04	0.0305 ± 0.056	0.0955 ± 0.088	0.02 ± 0.044	-0.0985 ± 0.1	-0.015 ± 0.051	-0.013 ± 0.034	-0.007 ± 0.059	0.011 ± 0.0085	0.0065 ± 0.016	0.051 ± 0.017	0.001 ± 0.028	-0.0035 ± 0.0064	0.0205 ± 0.03	-0.014 ± 0.064	-0.01 ± 0.065	0.0365 ± 0.079
4H:CD106/VCAM-1	0.019 ± 0.013	0.0215 ± 0.035	0.0045 ± 0.049	0.007 ± 0.017	0.116 ± 0.021	0.0765 ± 0.0021	0.01 ± 0.023	-0.0125 ± 0.0078	-0.001 ± 0.0042	0.006 ± 0.051	0 ± 0.028	-0.0205 ± 0.026	-0.0165 ± 0.0092	-0.021 ± 0.0042	-0.001 ± 0.013	0.013 ± 0.03	0.01 ± 0.034	0.014 ± 0.068
LPS:sPGE2	0.101 ± 0.03	0.0295 ± 0.005	-0.0185 ± 0.022	-0.0285 ± 0.059	-0.023 ± 0.023	0.07 ± 0.0042	-0.0045 ± 0.013	-0.006 ± 0.011	0.0045 ± 0.0078	-0.01 ± 0.042	-0.0395 ± 0.023	-0.018 ± 0.0085	-0.0045 ± 0.012	0.0155 ± 0.025	-0.0075 ± 0.0035	0.0235 ± 0.0092	0.0015 ± 0.00071	-0.038 ± 0.018
BF4T:tPA	0.0105 ± 0.015	-0.0125 ± 0.005	-0.0145 ± 0.015	0.004 ± 0.073	0.0595 ± 0.0064	0.067 ± 0.0028	-0.003 ± 0.0028	-0.024 ± 0.018	0.0155 ± 0.059	-0.0055 ± 0.012	-0.003 ± 0.011	0.0065 ± 0.012	0.0025 ± 0.005	0.0105 ± 0.011	0.011 ± 0.013	0.0015 ± 0.005	-0.0065 ± 0.018	0.036 ± 0.047
BE3C:CD87/uPAR	0.0185 ± 0.03	-0.0275 ± 0.026	-0.049 ± 0.033	-0.05 ± 0.054	0.012 ± 0.016	-0.024 ± 0.028	-0.0105 ± 0.005	-0.0215 ± 0.012	0.008 ± 0.03	0.006 ± 0.02	0.002 ± 0.0057	0.027 ± 0.0042	-0.012 ± 0.0099	0.0015 ± 0.013	-0.015 ± 0.013	0.0165 ± 0.018	0.0035 ± 0.00071	0.0465 ± 0.026
LPS:CXCL8/IL-8	-0.0305 ± 0.011	0.0085 ± 0.033	0.027 ± 0.03	0.105 ± 0.059	0.039 ± 0.0042	-0.003 ± 0.0028	0.015	0.0085 ± 0.021	0.0385 ± 0.021	0.0065 ± 0.03	0.0135 ± 0.005	0.0145 ± 0.0021	-0.0055 ± 0.005	-0.0165 ± 0.00071	0.0095 ± 0.011	-0.0045 ± 0.015	0.005	0.015 ± 0.017
SAg:CXCL9/MIG	-0.0145 ± 0.005	-0.0125 ± 0.0078	0.0015 ± 0.0064	0.0105 ± 0.011	-0.0135 ± 0.005	-0.0075 ± 0.013	-0.0065 ± 0.005	0.004 ± 0.0057	-0.001 ± 0.013	-0.005 ± 0.013	-0.0145 ± 0.0092	0.0005 ± 0.012	-0.0045 ± 0.005	-0.003 ± 0.016	-0.0065 ± 0.005	-0.0205 ± 0.028	-0.005 ± 0.014	0.0045 ± 0.032
3C:CD87/uPAR	-0.003 ± 0.031	0.0015 ± 0.0021	-0.0115 ± 0.026	0.0045 ± 0.013	-0.047 ± 0.027	-0.124 ± 0.046	0.016 ± 0.044	-0.013 ± 0.013	0.0195 ± 0.011	-0.0105 ± 0.0092	-0.0065 ± 0.0092	0.0045 ± 0.018	0.0005 ± 0.005	0.0105 ± 0.015	-0.0065 ± 0.011	-0.0125 ± 0.032	0.004 ± 0.0071	0.0285 ± 0.0035
LPS:CD106/VCAM-1	-0.031 ± 0.0085	-0.014 ± 0.021	-0.0155 ± 0.025	-0.013 ± 0.025	-0.0195 ± 0.023	-0.0395 ± 0.012	0.011 ± 0.013	-0.007 ± 0.0028	-0.009 ± 0.021	-0.0045 ± 0.00071	-0.008 ± 0.0014	-0.0165 ± 0.0064	-0.0095 ± 0.0021	-0.0075 ± 0.0021	-0.027 ± 0.033	-0.031 ± 0.0057	-0.0145 ± 0.018	-0.029 ± 0.0028
BF4T:Keratin 8/18	0.0045 ± 0.0035	-0.0285 ± 0.0092	-0.018 ± 0.0057	0.0045 ± 0.026	-0.002 ± 0.0014	-0.0005 ± 0.0021	-0.0075 ± 0.022	-0.008 ± 0.0014	0.0025 ± 0.019	0.0135 ± 0.022	-0.0085 ± 0.005	-0.015 ± 0.0028	-0.0015 ± 0.0092	-0.011 ± 0.011	0.0075 ± 0.018	-0.0075 ± 0.067	-0.023 ± 0.016	-0.015 ± 0.088
